Patent US20070293491A1, “INDAZOLE COMPOUNDS AND METHODS FOR INHIBITION OF CDC7” (NOVARTIS VACCINES AND DIAGNOSTICS, INC., priority 2006, published 2007)

Target: cdc7/dbf4 (Homo sapiens, UniProt O00311)
Experiment: In vitro assay of CDC7/DBF4 inhibition (phosphoserine 108-MCM-2 detection, donor/acceptor beads)
Assay type: biochemical
Settings: Test Concentration 0.93 μM; 0.5 μM ATP solution, MCM-2 substrate, 1 hr room temperature
Protocol: A 20.5 μL kinase reaction was performed on OptiPlate-384 plates PerkinElmer, 6007290) as follows by sequential addition of: 0.5 μL of test compounds of the invention in DMSO, 10 μL 0.5 μM ATP in reaction buffer, 10 μL 2.2 nM cdc7/dbf4 baculovirus derived), 4.4 nM MCM-2 in a reaction buffer. The reaction proceeded for 1 hr at room temperature on an orbital shaker. The reaction was terminated by addition of 10 μL detection buffer containing Streptavidin-coated donor beads and Protein A conjugated acceptor beads (54 μg/ml), and 1:4000 diluted rabbit antibody against phosphoserine 108-MCM-2 (Bethyl Labs). The mixture was incubated at room temperature for 4 hrs in the dark. The plate was then read on a PerkinElmer Fusion instrument. The reaction buffer contained 50 mM Hepes (pH 7.2-7.5), 10 mM MgCl2, 1 mM dithiothreitol (DTT), leupeptin (10 μg/ml), and bovine serum albumin (BSA) (0.2 mg/ml). The detection buffer contained 25 mM Tris (pH 7.5), 400 mM NaCl, 100mM EDTA, 0.3% BSA, and 0.05% Tween 20.
Representative compounds of the invention which inhibited the kinase reaction >70% in the above cdc7/db4 assay were selected for further analysis and confirmation. Test compounds were diluted in DMSO to a concentration of 0.93 μM or 1.39 μM and 0.5 μL of each test solution was added to wells for assay using the assay conditions and methods as described above.

Chain of cdc7/dbf4 (O00311 whole entry): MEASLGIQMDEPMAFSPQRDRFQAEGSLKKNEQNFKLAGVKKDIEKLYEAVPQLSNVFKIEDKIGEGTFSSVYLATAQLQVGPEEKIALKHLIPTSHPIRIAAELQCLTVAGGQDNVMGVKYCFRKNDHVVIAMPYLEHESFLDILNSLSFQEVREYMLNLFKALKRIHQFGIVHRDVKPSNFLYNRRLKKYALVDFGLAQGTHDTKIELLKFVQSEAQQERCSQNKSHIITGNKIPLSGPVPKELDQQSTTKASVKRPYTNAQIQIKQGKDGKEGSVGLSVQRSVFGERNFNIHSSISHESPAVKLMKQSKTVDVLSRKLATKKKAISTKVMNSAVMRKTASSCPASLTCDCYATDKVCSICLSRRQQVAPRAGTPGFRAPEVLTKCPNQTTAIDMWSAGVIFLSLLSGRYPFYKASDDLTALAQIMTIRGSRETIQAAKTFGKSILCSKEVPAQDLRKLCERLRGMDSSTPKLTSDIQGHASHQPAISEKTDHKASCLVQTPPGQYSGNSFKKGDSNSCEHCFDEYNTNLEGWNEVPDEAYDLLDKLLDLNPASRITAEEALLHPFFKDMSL
Chain of cdc7/dbf4 (Q9UBU7 whole entry partner): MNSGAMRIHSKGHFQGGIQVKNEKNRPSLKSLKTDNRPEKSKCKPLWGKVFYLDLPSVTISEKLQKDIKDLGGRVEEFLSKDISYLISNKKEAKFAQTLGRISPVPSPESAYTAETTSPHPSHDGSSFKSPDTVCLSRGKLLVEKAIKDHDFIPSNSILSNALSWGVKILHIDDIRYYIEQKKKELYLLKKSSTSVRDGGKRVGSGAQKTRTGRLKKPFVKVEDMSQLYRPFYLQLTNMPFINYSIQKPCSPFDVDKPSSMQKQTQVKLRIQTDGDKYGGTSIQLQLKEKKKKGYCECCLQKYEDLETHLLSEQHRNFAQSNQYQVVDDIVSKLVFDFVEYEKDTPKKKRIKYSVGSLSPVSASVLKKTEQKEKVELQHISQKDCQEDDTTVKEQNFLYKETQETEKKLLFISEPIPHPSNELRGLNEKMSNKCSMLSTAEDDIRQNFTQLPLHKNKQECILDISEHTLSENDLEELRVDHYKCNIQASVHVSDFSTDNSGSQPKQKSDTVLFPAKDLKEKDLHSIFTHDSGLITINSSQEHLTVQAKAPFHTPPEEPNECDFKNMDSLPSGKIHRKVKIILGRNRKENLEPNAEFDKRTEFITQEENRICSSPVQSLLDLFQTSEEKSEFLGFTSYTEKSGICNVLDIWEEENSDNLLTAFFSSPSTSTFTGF

inhibition at 0.93 µM (stock) [%] | Compound
82 | O=c1nc(-c2ccc3[nH]ncc3c2)cc(-c2cccc(F)c2)[nH]1 [Example 2, 6-(3-fluorophenyl)-4-(1H-indazol-5-yl)pyrimidin-2(1H)-one]
81 | COc1ccc(-c2cc(-c3ccc4[nH]ncc4c3)nc(=O)[nH]2)c(F)c1 [Example 3, 6-(2-fluoro-4-methoxyphenyl)-4-(1H-indazol-5-yl)pyrimidin-2(1H)-one]
94 | COc1ccc(OC)c(-c2cc(-c3ccc4[nH]ncc4c3)nc(=O)[nH]2)c1 [Example 4, 6-(2,5-dimethoxyphenyl)-4-(1H-indazol-5-yl)pyrimidin-2(1H)-one]
75 | COc1ccc(-c2cc(-c3ccc4[nH]ncc4c3)nc(=O)[nH]2)cc1F [Example 5, 6-(3-fluoro-4-methoxyphenyl)-4-(1H-indazol-5-yl)pyrimidin-2(1H)-one]
83 | CCc1ccc(-c2cc(-c3ccc4[nH]ncc4c3)nc(=O)[nH]2)cc1 [Example 6, 6-(4-ethylphenyl)-4-(1H-indazol-5-yl)pyrimidin-2(1H)-one]
62 | COc1ccc(-c2cc(-c3ccc4[nH]ncc4c3)nc(=O)[nH]2)cc1OC [Example 7, 6-(3,4-dimethoxyphenyl)-4-(1H-indazol-5-yl)pyrimidin-2(1H)-one]
55 | O=c1nc(-c2ccc3[nH]ncc3c2)cc(-c2cccc(C(F)(F)F)c2)[nH]1 [Example 8, 4-(1H-indazol-5-yl)-6-[3-(trifluoromethyl)phenyl]pyrimidin-2(1H)-one]
87 | O=c1nc(-c2ccc3[nH]ncc3c2)cc(-c2ccccc2F)[nH]1 [Example 9, 6-(2-fluorophenyl)-4-(1H-indazol-5-yl)pyrimidin-2(1H)-one]
98 | O=c1nc(-c2ccc3[nH]ncc3c2)cc(-c2cccc(Cl)c2)[nH]1 [Example 10, 6-(3-chlorophenyl)-4-(1H-indazol-5-yl)pyrimidin-2(1H)-one]
58 | O=c1nc(-c2ccc3[nH]ncc3c2)cc(-c2ccc(OCc3ccccc3)cc2)[nH]1 [Example 15, 6-[4-(benzyloxy)phenyl]-4-(1H-indazol-5-yl)pyrimidin-2(1H)-one]
94 | O=c1nc(-c2ccc3[nH]ncc3c2)cc(-c2ccc(N3CCNCC3)cc2)[nH]1 [Example 16, 4-(1H-indazol-5-yl)-6-(4-piperazin-1-ylphenyl)pyrimidin-2(1H)-one]

Same assay, conditions: Test Concentration 1.39 μM; 0.5 μM ATP solution, MCM-2 substrate, 1 hr room temperature

inhibition at 1.39 µM (stock) [%] | Compound
98 | O=c1nc(-c2ccc3[nH]ncc3c2)cc(-c2ccccc2)[nH]1 [Example 11, 4-(1H-indazol-5-yl)-6-phenylpyrimidin-2(1H)-one]
98 | O=c1nc(-c2ccc3[nH]ncc3c2)cc(-c2cccc(OCc3ccccc3)c2)[nH]1 [Example 12, 6-[3-(benzyloxy)phenyl]-4-(1H-indazol-5-yl)pyrimidin-2(1H)-one]
92 | O=c1nc(-c2ccc3[nH]ncc3c2)cc(-c2ccc(N3CCOCC3)cc2)[nH]1 [Example 13, 4-(1H-indazol-5-yl)-6-(4-morpholin-4-ylphenyl)pyrimidin-2(1H)-one]
84 | O=c1nc(-c2ccc3[nH]ncc3c2)cc(-c2ccc(Oc3ccccc3)cc2)[nH]1 [Example 14, 4-(1H-indazol-5-yl)-6-(4-phenoxyphenyl)pyrimidin-2(1H)-one]
